Measurements as given in US8093374B2, “Bismuth hyaluronate, the preparation method and the use thereof” (priority 2005, dated 2012).
Marks after values point to notes of the source that are not given here.

How the values were obtained:
[1] = system: acetic acid-induced gastric ulcer; test: Protecting effect on acetic acid-induced gastric ulcer in rats; format: in vivo, Female Wistar rats; conditions: for Area of Ulcer (x ± s): intragastric once daily for 10 consecutive days, negative control 15.71 ± 2.20; for Inhibition of Ulcer: intragastric once daily for 10 days, percentage of the control
Excerpt: Female Wistar rats weighing 150 to 200 g were used. Following the method described in literatures ((1) Pharmacological Test Methodology, 2nd edition, Beijing, People's Health Press, 1991, 1158-1160; (2) Guidelines for preclinical studies of new drugs (western medicines) (pharmacy, pharmacology, toxicology), 1993, 88-89), a model of acetic acid-induced gastric ulcer was made. Specifically, in an area of 5 mm in diameter on the serosal side of the body of stomach in rats under anesthesia with ether, gastric ulcer was induced by treatment with 0.2 ml of glacial acetic acid for 1.5 min. On the next day following the operation, animals were randomly divided into 6 groups and started on oral administration, with distilled water as negative control and colloidal bismuth pectin as positive control. The test samples are the bismuth hyaluronate of the present invention prepared according to the Preparation Example 1 (having a glucuronate content of 27.9% and a bismuth content of 30.7%) and the starting material sodium hyaluronate (having an average molecular weight of 9.1×10^5 and a glucuronate content of 38.9%). The rats received intragastric administration once daily in a volume of about 10 ml for 10 consecutive days. Then the animals were sacrificed, and their stomachs were removed and fixed in a formaldehyde solution. After dissection, the size of the gastric ulcer was determined by measuring under microscope the maximum longitudinal diameter (d1) and the maximum transverse diameter (d2) through the center of the ulcer, and calculating the area of ulcer using the following equation: S=π×(d1/2)×(d2/2). The inhibition of ulcer was expressed as the percentage of the control.

[2] = system: hydrochloric acid-ethanol-induced injury to gastric mucosa; test: Prevention and treatment of hydrochloric acid-ethanol-induced injury to gastric mucosa in rats; format: in vivo, Female Wistar rats; conditions: for Length of injury (x ± s): sacrificed 1 h after, negative control 97.50 ± 13.28
Procedure: Female Wistar rats weighing 150 to 200 g were used. Following the method described in the literature (Methodology of pharmacological studies of Chinese medicines, Beijing, People's Health Press, 1994: 441). The rats were fasted, with access to water, for 24 h. Then the rats were randomly divided (see above) and received intragastric administration. 30 min after the administration, each rat was drenched with hydrochloric acid-ethanol (a mixture of 50 ml of absolute ethanol and 1 ml of concentrated hydrochloric acid) at a dose of 0.5 ml/100 g of body weight. 1 h after the treatment with acidified ethanol, the animals were sacrificed, and their stomachs were removed and fixed in a formaldehyde solution. The stomach was cut open along the greater curvature and washed for examination of the injury to the gastric mucous membrane.

[3] = 50 mg/kg intragastric 30 min before hydrochloric acid-ethanol
[4] = 100 mg/kg intragastric 30 min before hydrochloric acid-ethanol
[5] = 150 mg/kg intragastric 30 min before hydrochloric acid-ethanol

Substance | Area of Ulcer (x ± s) ([1]; 50 mg/kg) | Inhibition of Ulcer ([1]; 50 mg/kg) [%] | Area of Ulcer (x ± s) ([1]; 100 mg/kg) | Inhibition of Ulcer ([1]; 100 mg/kg) [%] | Area of Ulcer (x ± s) ([1]; 150 mg/kg) | Inhibition of Ulcer ([1]; 150 mg/kg) [%] | inhibition of acetic acid-induced gastric ulcer (in words) ([1]; rats, summary of Table 2) | inhibition of acetic acid-induced gastric ulcer compared with colloidal bismuth pectin (in words) ([1]; rats, versus positive control) | Inhibition of Ulcer [2, 3] [%] | Length of injury (x ± s) [2, 3] | Inhibition of Ulcer [2, 4] [%] | Length of injury (x ± s) [2, 4] | Inhibition of Ulcer [2, 5] [%] | Length of injury (x ± s) [2, 5] | inhibition of acidified ethanol-induced gastric ulcer (in words) ([2]; rats, summary of Table 3) | inhibition of acidified ethanol-induced gastric ulcer compared with colloidal bismuth pectin (in words) ([2]; rats, versus positive control)
bismuth hyaluronate | 5.92 ± 2.27** mm^2 | 62.32 | 4.98 ± 1.15***^Δ mm^2 | 68.30 | 4.05 ± 1.62***^ΔΔ mm^2 | 74.22 | statistically significant inhibition | significantly higher than the positive control | 72.78 | 26.54 ± 7.88***^ΔΔ mm | 92.93 | 6.89 ± 1.86***^ΔΔΔ mm | 92.70 | 7.11 ± 2.13***^ΔΔΔ mm | statistically significant inhibition | significantly higher than the positive control
sodium hyaluronate [reference compound] |  |  |  |  | 10.25 ± 2.29 mm^2 | 34.75 |  |  |  |  |  |  | 48.16 | 50.54 ± 11.98 mm |  | 
colloidal bismuth pectin [reference compound] |  |  |  |  | 7.15 ± 2.03* mm^2 | 54.48 |  |  |  |  |  |  | 55.24 | 43.64 ± 9.55 mm |  | 
